Results from BindingDB's records for doi:10.1021/jm00392a002 (1987).
Non-standard residues stand in square brackets, D forms with d. Residues, ends and D or L forms follow the SMILES beside them. ξ: configuration not given here. Met(O) = CS(=O)CC[C@H](N)C(=O)O; ξA = CC(N)C(=O)O; Sar = CNCC(=O)O

What follows are compounds tested against Delta-type opioid receptor (Cavia porcellus) (assay: Evaluated for the inhibition of [3H]DADLE binding to Opioid receptor delta 1 of guinea pig brain).

SMILES	IC50 [nM]
COC(=O)CN(C)C(=O)[C@H](Cc1ccccc1)NC(=O)[C@H](CC[S+](C)[O-])NC(=O)[C@H](Cc1ccc(O)cc1)N=C(N)N (stereo partly specified)	150
CN(CC(N)=O)C(=O)[C@H](Cc1ccccc1)NC(=O)[C@H](CC[S+](C)[O-])NC(=O)[C@@H](N)Cc1ccc(O)cc1 (stereo partly specified) (H-Y[Met(O)]F[Sar]-NH2)	440
CN(CC(=O)O)C(=O)[C@H](Cc1ccccc1)NC(=O)[C@H](CC[S+](C)[O-])NC(=O)[C@@H](N)Cc1ccc(O)cc1 (stereo partly specified) (H-Y[Met(O)]F[Sar]-OH)	2120
COC(=O)CN(C)C(=O)[C@H](Cc1ccccc1)NC(=O)[C@H](CC[S+](C)[O-])NC(=O)[C@@H](N)Cc1ccc(O)cc1 (stereo partly specified) (H-Y[Met(O)]F[Sar]-OMe)	510
CC(NC(=O)[C@H](Cc1ccccc1)NC(=O)[C@H](CC[S+](C)[O-])NC(=O)[C@@H](N)Cc1ccc(O)cc1)C(N)=O (stereo partly specified) (H-Y[Met(O)]F[ξA]-NH2)	900
C[C@@H](NC(=O)[C@@H](N)Cc1ccc(O)cc1)C(=O)N[C@@H](Cc1ccccc1)C(=O)NCC(N)=O (H-Y[dA]FG-NH2)	818
